Source: ChEMBL document CHEMBL1201862, “PubChem BioAssay data set” (2004)
Calls of active or inactive are those of the source. Unless noted, the calls are words filed in the database; no cut-off is given here.

Tests used:
[1] = A549 lung cell cytotoxicity, dose response, cytotoxicity control, CellTiter-Glo luminescence, dry powder samples (AID 720585); format: functional
[2] = HepG2 cell cytotoxicity, dose response, cytotoxicity control, cherry-picks, set 5 (AID 1053118); format: functional, cell-based
[3] = HEK293 cell cytotoxicity, dose response, cytotoxicity control, cherry-picks, set 5 (AID 1053117); format: functional, cell-based
[4] = inhibitors of fibronectin matrix deposition, dose response, AH1F cells, Alexa488-FN fluorescence, cherry-picks (AID 1035475); format: functional, cell-based
[5] = biological target: Metabotropic glutamate receptor 5 (Rattus norvegicus, UniProt P31424); assay: Identification of a glycine sulfonamide based non-MPEP site positive allosteric potentiator (PAM) of mGlu5 (calcium_assay).; format: functional
[6] = HEK293T cell cytotoxicity, dose response, cytotoxicity control, luminescence plate reader, powder samples, set 4 (AID 651863); format: functional, cell-based; details: HEK293
[7] = cytotoxicity in HepG2 cells, dose response, cytotoxicity control, cell-based, plate reader, dry powder (AID 651947); format: functional
[8] = inhibitors of non-replicating M. tuberculosis, dose response, luciferase, dry powder (AID 651619); format: functional; details: Mycobacterium tuberculosis
[9] = HEK293T cell cytotoxicity, dose response, cytotoxicity control, CellTiter-Glo luminescence, dry powder, set 6 (AID 651949); format: functional, cell-based; details: HEK293
[10] = inhibitors of non-replicating M. tuberculosis, dose response, luciferase, dry powder (AID 651620); format: functional; details: Mycobacterium tuberculosis
[11] = growth inhibition of replicating M. tuberculosis, dose response, counter-screen, dry powder, IC90 (AID 651617); format: functional; details: Mycobacterium tuberculosis
[12] = biological target: Delta-type opioid receptor (Homo sapiens, UniProt P41143); assay: Late-stage results from the probe development effort to identify antagonists of OPRK1: fluorescence-based cell-based dose response OPRD1 counterscreen.; format: functional
[13] = biological target: Mu-type opioid receptor (Homo sapiens, UniProt P35372); assay: Late-stage results from the probe development effort to identify antagonists of OPRK1: luminescence-based cell-based dose response OPRM1 counterscreen.; format: functional
[14] = Late stage assay provider results from the probe development effort to identify selective inhibitors of heat shock protein 90 (HSP90): Absorbance-based cell proliferation assay in SKBR3 cells.; format: functional; details: SK-BR-3
[15] = Late stage assay provider results from the probe development effort to identify selective inhibitors of heat shock protein 90 (HSP90): Absorbance-based cell proliferation assay in MCF7 cells.; format: functional
[16] = A Cell-Based Confirmatory Screen for Compounds that Inhibit VEEV, TC-83 (8).; format: functional
[17] = A549 cell cytotoxicity, dose response, cytotoxicity control, 24 h, CellTiter-Glo luminescence, cherry-picks (AID 1053115); format: functional, cell-based; details: A549, 24 h

Sequence of Delta-type opioid receptor (P41143 whole entry): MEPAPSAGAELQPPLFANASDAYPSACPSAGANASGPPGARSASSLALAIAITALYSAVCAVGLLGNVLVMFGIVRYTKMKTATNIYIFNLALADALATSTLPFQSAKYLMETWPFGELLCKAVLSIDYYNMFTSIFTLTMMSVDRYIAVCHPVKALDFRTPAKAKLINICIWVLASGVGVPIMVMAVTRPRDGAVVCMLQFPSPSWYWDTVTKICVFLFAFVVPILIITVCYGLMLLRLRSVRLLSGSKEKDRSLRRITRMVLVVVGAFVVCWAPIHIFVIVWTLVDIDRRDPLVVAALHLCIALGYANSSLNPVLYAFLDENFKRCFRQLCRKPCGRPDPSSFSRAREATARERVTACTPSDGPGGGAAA
Sequence of Mu-type opioid receptor (P35372 whole entry): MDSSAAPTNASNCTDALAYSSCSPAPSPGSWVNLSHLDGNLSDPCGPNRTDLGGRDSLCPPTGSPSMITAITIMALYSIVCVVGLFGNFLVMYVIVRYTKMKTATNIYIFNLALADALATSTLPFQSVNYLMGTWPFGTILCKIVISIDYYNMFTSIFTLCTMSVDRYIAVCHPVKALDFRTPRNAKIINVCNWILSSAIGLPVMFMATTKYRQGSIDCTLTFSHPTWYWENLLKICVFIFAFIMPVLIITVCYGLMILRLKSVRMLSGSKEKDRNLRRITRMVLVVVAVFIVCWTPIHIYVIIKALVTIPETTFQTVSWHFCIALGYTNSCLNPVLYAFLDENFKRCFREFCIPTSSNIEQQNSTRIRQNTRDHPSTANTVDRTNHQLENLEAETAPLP
Sequence of Metabotropic glutamate receptor 5 (P31424 whole entry): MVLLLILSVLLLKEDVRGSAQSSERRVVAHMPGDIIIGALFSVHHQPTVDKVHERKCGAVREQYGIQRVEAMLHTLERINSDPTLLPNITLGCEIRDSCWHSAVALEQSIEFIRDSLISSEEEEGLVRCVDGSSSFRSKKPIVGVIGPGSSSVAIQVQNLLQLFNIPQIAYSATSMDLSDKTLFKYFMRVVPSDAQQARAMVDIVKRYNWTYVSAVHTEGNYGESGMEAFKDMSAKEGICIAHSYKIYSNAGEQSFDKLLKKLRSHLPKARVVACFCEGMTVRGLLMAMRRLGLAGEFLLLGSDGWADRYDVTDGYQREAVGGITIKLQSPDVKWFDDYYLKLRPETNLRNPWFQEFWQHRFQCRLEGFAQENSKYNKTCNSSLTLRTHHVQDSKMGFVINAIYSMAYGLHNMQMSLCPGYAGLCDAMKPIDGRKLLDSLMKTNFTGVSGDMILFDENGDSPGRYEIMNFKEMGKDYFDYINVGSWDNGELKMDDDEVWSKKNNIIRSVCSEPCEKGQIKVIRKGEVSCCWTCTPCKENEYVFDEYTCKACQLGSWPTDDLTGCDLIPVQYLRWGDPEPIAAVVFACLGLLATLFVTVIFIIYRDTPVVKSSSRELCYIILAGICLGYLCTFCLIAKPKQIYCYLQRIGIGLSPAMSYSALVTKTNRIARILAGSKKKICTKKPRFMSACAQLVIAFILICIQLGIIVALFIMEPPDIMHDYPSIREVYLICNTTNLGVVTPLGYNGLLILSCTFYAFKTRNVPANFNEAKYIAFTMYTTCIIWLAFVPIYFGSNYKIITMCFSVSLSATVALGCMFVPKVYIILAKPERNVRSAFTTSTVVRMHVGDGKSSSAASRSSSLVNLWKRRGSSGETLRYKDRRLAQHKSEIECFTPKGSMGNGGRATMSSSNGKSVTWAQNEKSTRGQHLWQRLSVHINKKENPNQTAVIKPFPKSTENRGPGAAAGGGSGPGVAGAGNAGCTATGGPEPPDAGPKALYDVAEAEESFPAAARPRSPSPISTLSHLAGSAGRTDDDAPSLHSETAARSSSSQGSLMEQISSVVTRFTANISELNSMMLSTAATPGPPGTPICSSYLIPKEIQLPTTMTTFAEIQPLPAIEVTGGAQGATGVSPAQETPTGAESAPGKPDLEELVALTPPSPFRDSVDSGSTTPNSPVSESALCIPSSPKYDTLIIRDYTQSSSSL

In the case of Cc1ccc(/C=C(\CCCC(=O)O)c2nc3ccccc3s2)cc1[N+](=O)[O-], the AbsAC50_uM [1] is reported as 140.77 µM.
For O=S(=O)(c1cccc(F)c1)N1CC[C@@H]2[C@@H](CO)Nc3ccc(-c4cccc(F)c4)cc3[C@@H]21, the AC50 [2] was 27.3 µM (active), the AC50 [3] was 22.6 µM (active) and the AC50 [4] was 6.54 µM (active).
CS(=O)(=O)N(CC(=O)Nc1ccc(F)cc1F)c1cc(C(F)(F)F)ccc1Cl gave an EC50 [5] of 2.41 µM.
In the case of O=C(NC[C@@H]1c2ccccc2CCN1C(=O)[C@@H]1CCCC[C@@H]1C(=O)O)OCC1c2ccccc2-c2ccccc21, the AC50 [6] is reported as 46.3 µM (active).
With Cc1ccccc1CSc1nnc(-c2ccccc2)o1 the AC50 [7] was 0.308 µM (active).
For c1ccc(-n2cc(CSc3nnc(C4CCC4)o3)nn2)cc1, the IC90 [8] was 2 µM (active), the AC50 [9] was > 52 µM (inactive) and the IC90 [10] was 2 µM (active). For the same compound, the IC90 [11] was 62 µM (active).
With CC(C)OC(=O)c1cc(Br)cnc1N1CCC(NC2CCCCC2)CC1 the IC50 [12] was 3 µM (active) and the IC50 [13] was 20 µM (inactive).
For COc1c[nH]c(C(=O)Nc2cccc(C(C)=O)c2)cc1=O, the IC50 [14] was > 100 µM (inactive) and the IC50 [15] was > 100 µM (inactive).
With CNCCN(C)Cc1nc2ccc(C#N)cc2c(=O)n1-c1ccccc1F the IC50 [16] was 3.69 µM (active).
For OC[C@H]1Nc2ccc(-c3cccc(F)c3)cc2[C@H]2[C@@H]1CCN2Cc1ccc(F)cc1, the AC50 [17] was 45.3 µM (active).
